Assay results published in patent publication US6686345B2, “DNA-cleaving antitumor agents” (Research Development Foundation, priority 1998, dated 2004).

Assays:
[1] = tested on: Supercoiled DNA; experiment: DNA cleavage by heterocyclic variants (KeAZB series); format: biochemical
Description: The gel depicted in FIG. 3 represents the results of the DNA cleavage experiment with KeAZB002. Supercoiled DNA (50 uM in 50 mM TRIS phosphate buffer, pH 8) was incubated with 0 (lanes 1, 5), 1 (lanes 2, 6), 100 (lanes 3, 7), or 1000 (lane 4) uM of KeAZB002 for 24 hours at 20° C. Samples for lanes 5-8 were loaded onto the agarose gel, whereas samples for lanes 1-4 were heated at 70° C. for 90 sec. prior to loading onto the gel. After electrophoresis at 60 V for 2 hrs, the DNA products were visualized with ethidium bromide staining and UV transillumination.

[2] = tested on: supercoiled plasmid DNA; experiment: DNA cleavage of supercoiled plasmid DNA by aza-enediyne heterocycles (thiazolium and benzothiazolium salts); format: biochemical; settings: for DNA Cleavage 100 μM: 100 μM compound; for DNA Cleavage 100 μM / DNA Cleavage 1 mM: 50 μM bp DNA, TRIS pH 8.0, 24 hrs at 37° C.; for DNA Cleavage 1 mM: 1 mM compound
Description: The DNA cleavage efficiency of aza-enediyne heterocycles is determined by incubating the azaenediynes with supercoiled plasmid DNA. The supercoiled DNA was diluted to 50 μM bp in 50 mM TRIS buffer at pH 8.0. […] DNA topoisomers were separated by electrophoresis (0.8% agarose, 1× TBE, 82V, 1 hr 10 min) and stained with ethidium bromide (0.25 μg/mL) and images were analyzed by phosphorimger.
(§1) The normalized percent cleavage of DNA is determined as: [formula]
DNA cleavage normalized for the small amount (10-25%) of nicked relaxed DNA in control samples (DMSO-only treated DNA) is reported in Table 6.

[3] = Stability of heterocyclic salts in methanol (CD3OD) monitored by NMR; settings: solution in CD3OD monitored by NMR
Source text: The stability of solutions of these salts in CD3OD can be monitored by NMR.

[4] = tested on: MCF-7 cancer cells; experiment: In vitro cancer cell cytotoxicity of pyridinium salts, MCF-7; format: cell-based; settings: for IC50: Homo sapiens, MCF7, MCF-7 cells, growth inhibition
Source text: (§2) The 2-ethynyl-1-prop-2-ynyl-pyridinium triflate salt has less activity in the in vitro cytotoxicity assay, perhaps due to the instability of this compound in nucleophilic solvents. The IC50 (50% Inhibition Concentration) is defined as the test compound concentration where the increase from time 0 in the number or mass of treated cells is only 50% as much as the corresponding increase in the vehicle-control at the end of experiment.

[5] = tested on: A549 cancer cells; experiment: In vitro cancer cell cytotoxicity of pyridinium salts, A549; format: cell-based; settings: for IC50: Homo sapiens, A549 cells, growth inhibition
Source text: as §2

[6] = Thermal isomerization (aza-Bergman rearrangement) of C,N-dialkynylimine; format: physicochemical; settings: slower than 5a to 7a
Source text: A general synthetic route to C,N-dialkynylimines (3-aza-enediynes) 5a,b is depicted in FIG. 1. These imines are isolated as air stable yellow oils after chromatography. When a benzene solution of 5a is heated under reflux overnight, nitrile 7a is produced in 88% yield (FIG. 2). The nitrile 7a is isolated as a single stereoisomer, which is assigned the (Z)-geometry by comparison with authentic (E)-7a. Authentic (E)-7a was synthesized by the palladium-catalyzed coupling of 1-propynyltributyltin and the (E)-enol triflate of 2-cyano-2-phenylacetophenone. Heating a solution of imine 5a in benzene containing a large excess of 1,4-cyclohexadiene (1,4-chd) as a hydrogen atom trap, or in neat 1,4-chd at 150° C. for two hours affords the nitrile 7a as the only isolable product. The imine 5b contains a pendent double bond that could serve as an intramolecular trap for the putative diradical intermediate 6 (FIG. 2). We find that heating a benzene solution of 5b containing a large excess of 1,4-chd affords only the nitrile 7b in nearly quantitative yield. In none of these reactions were any products (e.g. 8 or 10) which would arise from trapping of the 2,5-ddp intermediate 6 detected.
The ^t½ for the Bergman cyclization of the corresponding (Z)-1,6-diphenylhex-3-ene-1,5-diyne to o-terphenyl is about 1000-fold slower than the rearrangement of 5a to 7a.

[7] = tested on: supercoiled ΦX174 plasmid DNA; experiment: DNA cleavage by 2-alkynyl pyridinium triflate salts; format: biochemical, ΦX174 Phage; settings: for Normalized Percent Cleavage of ΦX174 Phage (RF-1) DNA: 24 hrs at 37° C., pH 8.0; for DNA cleavage (in words): pyridinium series
Description: as §1
The DNA cleavage efficiency of these azaenediyne heterocycles was determined by incubation with aqueous solutions of supercoiled ΦX174 plasmid DNA. The supercoiled DNA was diluted to 50 μM bp in 50 mM TRIS pH 8.0. The reaction mixtures containing compound and 13% v/v DMSO-d6 were incubated for 24 hrs at 37° C. DNA topoisomers were separated by agarose gel electrophoresis (1 X TBE, 90V, 1 hr), stained with ethidium bromide (0.25 μg/mL), and the images were analyzed on a fluorimager. DNA cleavage results are reported as normalized percent cleavage in Table 7 as for the thiazolium and benzothiazolium salts in Example 8.

SMILES: C#CC[n+]1ccccc1C#Cc1ccccc1.O=S(=O)([O-])C(F)(F)F [KeAZB009, N-propargyl-2-phenylethynylpyridiniumium triflate]
- DNA cleavage (in words) [1]: more potent DNA cleavage than KeAZB002

SMILES: C#CC[n+]1c(C#Cc2ccccc2)sc2ccccc21
- DNA Cleavage 100 μM [2]: 46%
- DNA Cleavage 1 mM [2]: 100%
- Stability in MeOH (Initial Decomposition) [3]: ˜30 min

SMILES: C#CC[n+]1ccccc1C#C [drawing 132]
- IC50 [4]: 63 µM
- IC50 [5]: 21 µM

SMILES: C#CC[n+]1cccnc1C#Cc1ccccc1
- DNA Cleavage 100 μM [2]: 14.4%
- DNA Cleavage 1 mM [2]: 43.3%
- Stability in MeOH (Initial Decomposition) [3]: >24 h

SMILES: C(#Cc1ccccc1)/C=C\C#Cc1ccccc1 [(Z)-1,6-diphenylhex-3-ene-1,5-diyne]
- t½ for the Bergman cyclization relative to rearrangement of 5a to 7a [6]: about 1000 fold

SMILES: C#CC[n+]1ccccc1C#Cc1ccc(OC)cc1 [drawing 123, 1-prop-2-ynyl-2[(4-methoxyphenyl)-ethynyl]-pyridinium triflate]
- Normalized Percent Cleavage of ΦX174 Phage (RF-1) DNA ([7]; 1 μM): 7.5%
- Normalized Percent Cleavage of ΦX174 Phage (RF-1) DNA ([7]; 10 μM): 71%
- Normalized Percent Cleavage of ΦX174 Phage (RF-1) DNA ([7]; 50 μM): 97%
- Normalized Percent Cleavage of ΦX174 Phage (RF-1) DNA ([7]; 100 μM): 100%
- lowest concentration producing DNA cleavage ([7]; ΦX174 DNA): 1 µM
- DNA cleavage (in words) ([7]; ΦX174 DNA): most potent DNA cleavage activity

SMILES: C#CC[n+]1c(C#C[Si](C)(C)C)sc2ccccc21
- DNA Cleavage 1 mM [2]: 100%

SMILES: C[n+]1c(C#Cc2ccccc2)sc2ccccc21
- DNA Cleavage 1 mM [2]: 96%
- Stability in MeOH (Initial Decomposition) [3]: 0.167 to 0.25 h

SMILES: C#CC[n+]1c(-c2ccccc2)c(-c2ccccc2)n(C)c1C#Cc1ccccc1
- DNA Cleavage 100 μM [2]: 1.4%
- DNA Cleavage 1 mM [2]: 10%
- Stability in MeOH (Initial Decomposition) [3]: >24 h

SMILES: C#CC[n+]1ccccc1C#Cc1ccc(C(F)(F)F)cc1 [drawing 124, 1-prop-2-ynyl-2[(4-trifluoromethylphenyl)-ethynyl]-pyridinium triflate]
- Normalized Percent Cleavage of ΦX174 Phage (RF-1) DNA ([7]; 1 μM): 0.9%
- Normalized Percent Cleavage of ΦX174 Phage (RF-1) DNA ([7]; 10 μM): 33%
- Normalized Percent Cleavage of ΦX174 Phage (RF-1) DNA ([7]; 50 μM): 78%
- Normalized Percent Cleavage of ΦX174 Phage (RF-1) DNA ([7]; 100 μM): 90%

SMILES: C(#Cc1nc2ccccc2s1)c1ccccc1
- DNA Cleavage 1 mM [2]: 5%
- Stability in MeOH (Initial Decomposition) [3]: >24 h

SMILES: C#CC[n+]1ccccc1C#C[Si](C(C)C)(C(C)C)C(C)C [1-prop-2-ynyl-2[(triisopropyl-silanyl)-ethynyl]-pyridinium triflate]
- Normalized Percent Cleavage of ΦX174 Phage (RF-1) DNA ([7]; 1 μM): 0%
- Normalized Percent Cleavage of ΦX174 Phage (RF-1) DNA ([7]; 10 μM): 8.1%
- Normalized Percent Cleavage of ΦX174 Phage (RF-1) DNA ([7]; 50 μM): 49%
- Normalized Percent Cleavage of ΦX174 Phage (RF-1) DNA ([7]; 100 μM): 77%
- DNA cleavage (in words) ([7]; ΦX174 DNA): cleaves DNA less efficiently than all of the other 2-alkynyl substituted analogs

SMILES: C#CC[n+]1ccccc1C#Cc1ccccc1 [drawing 122, 1-prop-2-ynyl-2-phenylethynyl pyridinium triflate]
- Normalized Percent Cleavage of ΦX174 Phage (RF-1) DNA ([7]; 1 μM): 0.4%
- Normalized Percent Cleavage of ΦX174 Phage (RF-1) DNA ([7]; 10 μM): 17%
- Normalized Percent Cleavage of ΦX174 Phage (RF-1) DNA ([7]; 50 μM): 83%
- Normalized Percent Cleavage of ΦX174 Phage (RF-1) DNA ([7]; 100 μM): 87%

SMILES: C#CC[n+]1ccccc1C#C [drawing 125, 1-prop-2-ynyl-2-ethynyl-pyridinium triflate]
- Normalized Percent Cleavage of ΦX174 Phage (RF-1) DNA ([7]; 1 μM): 12%
- Normalized Percent Cleavage of ΦX174 Phage (RF-1) DNA ([7]; 10 μM): 39%
- Normalized Percent Cleavage of ΦX174 Phage (RF-1) DNA ([7]; 50 μM): 77%
- Normalized Percent Cleavage of ΦX174 Phage (RF-1) DNA ([7]; 100 μM): 85%
- growth inhibition of MCF-7 cells (in words) ([4]; MCF-7): less activity
- growth inhibition of A549 cells (in words) ([5]; A549): less activity

SMILES: C#CC[n+]1c(C#Cc2ccc(C)cc2)sc2ccccc21
- DNA Cleavage 1 mM [2]: 100%
- Stability in MeOH (Initial Decomposition) [3]: 0.333 to 0.5 h

SMILES: C#CC[n+]1ccsc1C#Cc1ccccc1 [drawing 121]
- Normalized Cleavage (%) ([2]; Concentration 25 μM): 37.31%
- Normalized Cleavage (%) ([2]; Concentration 50 μM): 56.84%
- Normalized Cleavage (%) ([2]; Concentration 100 μM): 67.29%
- Normalized Cleavage (%) ([2]; Concentration 250 μM): 92.79%

SMILES: C#CC[n+]1ccccc1CCc1ccccc1 [drawing 128, 1-prop-2-ynyl-2-phenethyl-pyridinium triflate]
- Normalized Percent Cleavage of ΦX174 Phage (RF-1) DNA ([7]; 1 μM): 2%
- Normalized Percent Cleavage of ΦX174 Phage (RF-1) DNA ([7]; 10 μM): 4%
- Normalized Percent Cleavage of ΦX174 Phage (RF-1) DNA ([7]; 50 μM): 10%
- Normalized Percent Cleavage of ΦX174 Phage (RF-1) DNA ([7]; 100 μM): 13%
- DNA cleavage (in words) ([7]; ΦX174 DNA): does not cleave DNA to any appreciable extent

SMILES: C#CC[n+]1ccccc1C#C[Si](C)(C)C [1-prop-2-ynyl-2[(trimethyl-silanyl)-ethynyl]-pyridinium triflate]
- Normalized Percent Cleavage of ΦX174 Phage (RF-1) DNA ([7]; 1 μM): 9%
- Normalized Percent Cleavage of ΦX174 Phage (RF-1) DNA ([7]; 10 μM): 34%
- Normalized Percent Cleavage of ΦX174 Phage (RF-1) DNA ([7]; 50 μM): 73%
- Normalized Percent Cleavage of ΦX174 Phage (RF-1) DNA ([7]; 100 μM): 89%

SMILES: C#CC[n+]1c(C#C[Si](C(C)C)(C(C)C)C(C)C)sc2ccccc21
- DNA Cleavage 1 mM [2]: 0%

SMILES: C#CC[n+]1ccccc1C#Cc1ccc(OC)cc1 [drawing 130]
- IC50 [4]: 8.7 µM
- IC50 [5]: 2.7 µM

SMILES: C#CC[n+]1ccccc1CCc1ccccc1 [drawing 133]
- IC50 [4]: 23 µM
- IC50 [5]: 11 µM

SMILES: C#CC[n+]1ccsc1C#Cc1ccccc1 [drawing 119]
- DNA Cleavage 100 μM [2]: 76%
- DNA Cleavage 1 mM [2]: 100%
- Stability in MeOH (Initial Decomposition) [3]: ˜24 hr

SMILES: C(#Cc1nccs1)c1ccccc1
- DNA Cleavage 1 mM [2]: 1.5%
- Stability in MeOH (Initial Decomposition) [3]: >24 h

SMILES: C#CC[n+]1ccccc1C#Cc1ccc(C(F)(F)F)cc1 [drawing 131]
- IC50 [4]: 10 µM
- IC50 [5]: 9.8 µM

SMILES: C[n+]1ccsc1C#Cc1ccccc1
- DNA Cleavage 1 mM [2]: 27%

SMILES: C#CC[n+]1ccccc1C#Cc1ccccc1 [drawing 129]
- IC50 [4]: 3.1 µM
- IC50 [5]: 3.3 µM
